Converted amounts (≈) assume the structure as drawn. “Also recorded” adds a separate entry of the source. Where two headings read alike, the source gives them in different places.
Key:
Assay type in all cases: cell-based
B. vulgatus = assay: Spontaneous mutation frequency and mutation prevention concentration (MPC); details: B. vulgatus ATCC 8482
Excerpt: (§1) As used herein, “spontaneous mutation frequency” refers to the rate at which mutations arise in a bacterium that can lead to resistance to develop to an antimicrobial agent. “Mutation prevention concentration” or “MPC” refers to the lowest concentration of antimicrobial agent above which the selective proliferation of resistant mutants is expected to occur only rarely.

Escherichia coli = assay: as above
Excerpt: as §1

S. pneumonia = assay: as above; details: S. pneumoniae ATCC 49619
Excerpt: as §1

Enterobacter aerogenes = assay: Broth microdilution MIC, 50 clinical isolates
Outline: (§2)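 Medium: cation-adjusted MHB, plus 3% lysed horse blood for streptococci, which were incubated with CO2 planchets. Final inoculum approx. 5×10^5 CFU/mL; serial two-fold drug dilutions per CLSI.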

Proteus mirabilis = assay: Broth microdilution MIC, 50 clinical isolates
Outline: as §2

Pseudomonas aeruginosa = assay: Broth microdilution MIC, 50 clinical isolates
Outline: as §2

[1] = E. coli ATCC 25922, selection 4X MIC, 0.06 μg/mL
[2] = E. coli ATCC 35218, selection 4X MIC, 0.06 μg/mL
[3] = E. coli MMX 1312, selection 4X MIC, 0.06 μg/mL, TNTC = too numerous to count

**Q.** Which results are given for `C[C@@H](O)[C@H]1C(=O)N2C(C(=O)O)=C(S[C@@H]3CN[C@H](C(=O)N(C)C)C3)[C@H](C)[C@H]12` [meropenem]?
**A.** MPC (B. vulgatus): 0.5 µg/mL; Average Count (B. vulgatus; selection 4X MIC, 0.5 μg/mL): 0 CFU; Count 1 (B. vulgatus; selection 4X MIC, 0.5 μg/mL): 0 CFU; Count 2 (B. vulgatus; selection 4X MIC, 0.5 μg/mL): 0 CFU; Spontaneous Mutation Frequency (B. vulgatus; selection 4X MIC, 0.5 μg/mL): ≤1.73 × 10^−10; Average Count (B. vulgatus; selection 8X MIC, 1 μg/mL): 0 CFU; Count 1 (B. vulgatus; selection 8X MIC, 1 μg/mL): 0 CFU; Count 2 (B. vulgatus; selection 8X MIC, 1 μg/mL): 0 CFU; Spontaneous Mutation Frequency (B. vulgatus; selection 8X MIC, 1 μg/mL): ≤1.73 × 10^−10; Average Count (Escherichia coli): 0 CFU; Count 1 (Escherichia coli): 0 CFU; Count 2 (Escherichia coli): 0 CFU; MPC (Escherichia coli; E. coli ATCC 25922): 0.06 µg/mL; Average Count (Escherichia coli; [1]): 0 CFU; Count 1 (Escherichia coli; [1]): 0 CFU; Count 2 (Escherichia coli; [1]): 0 CFU; Spontaneous Mutation Frequency (Escherichia coli; [1]): ≤7.41 × 10^−9; MPC (Escherichia coli; E. coli ATCC 35218): 0.06 µg/mL; Average Count (Escherichia coli; [2]): 0 CFU; Count 1 (Escherichia coli; [2]): 0 CFU; Count 2 (Escherichia coli; [2]): 0 CFU; Spontaneous Mutation Frequency (Escherichia coli; [2]): ≤5.13 × 10^−9; Average Count (Escherichia coli; [3]): TNTC; Count 1 (Escherichia coli; [3]): TNTC; Count 2 (Escherichia coli; [3]): TNTC; MPC (S. pneumonia): 0.25 µg/mL; Average Count (S. pneumonia; selection 8X MIC, 0.5 μg/mL): 0 CFU; Count 1 (S. pneumonia; selection 8X MIC, 0.5 μg/mL): 0 CFU; Count 2 (S. pneumonia; selection 8X MIC, 0.5 μg/mL): 0 CFU; Spontaneous Mutation Frequency (S. pneumonia; selection 8X MIC, 0.5 μg/mL): ≤9.52 × 10^−10; % I (Enterobacter aerogenes): 2%; % S (Enterobacter aerogenes): Ninety-eight; MIC range (Enterobacter aerogenes): 0.015 to 2 µg/mL; Mode (Enterobacter aerogenes): 0.03 µg/mL; relative activity among drugs tested (Enterobacter aerogenes): most active drug evaluated; also recorded: most active agent; Cumulative percentage of isolates inhibited at MIC (Enterobacter aerogenes; 0.015 μg/mL): 36.0%; Number of test isolates at MIC (Enterobacter aerogenes; 0.015 μg/mL): 18; Cumulative percentage of isolates inhibited at MIC (Enterobacter aerogenes; 0.03 μg/mL): 80.0%; Number of test isolates at MIC (Enterobacter aerogenes; 0.03 μg/mL): 22; Cumulative percentage of isolates inhibited at MIC (Enterobacter aerogenes; 0.06 μg/mL): 94.0%; Number of test isolates at MIC (Enterobacter aerogenes; 0.06 μg/mL): 7; Cumulative percentage of isolates inhibited at MIC (Enterobacter aerogenes; 1 μg/mL): 98.0%; Number of test isolates at MIC (Enterobacter aerogenes; 1 μg/mL): 1; Cumulative percentage of isolates inhibited at MIC (Enterobacter aerogenes; 2 μg/mL): 100.0%; Number of test isolates at MIC (Enterobacter aerogenes; 2 μg/mL): 1; MIC50 (Enterobacter aerogenes; Klebsiella aerogenes, read-out: MIC50): 0.03 µg/mL (≈ 0.0782 µM); MIC90 (Enterobacter aerogenes; Klebsiella aerogenes, read-out: MIC90): 0.06 µg/mL (≈ 0.156 µM); Cumulative percentage of isolates inhibited at MIC (Enterobacter aerogenes; […]): 96.0%; Number of test isolates at MIC (Enterobacter aerogenes; […]): 1; % I (Enterobacter aerogenes; listed as MEM): 2%; % S (Enterobacter aerogenes; listed as MEM): 98%; % S (Proteus mirabilis): 98%; MIC range (Proteus mirabilis): ≤0.008 to 2 µg/mL; Mode (Proteus mirabilis): 0.06 µg/mL; Cumulative percentage of isolates inhibited at MIC (Proteus mirabilis; 0.03 μg/mL): 38.0%; Number of test isolates at MIC (Proteus mirabilis; 0.03 μg/mL): 18; Cumulative percentage of isolates inhibited at MIC (Proteus mirabilis; 0.06 μg/mL): 82.0%; Number of test isolates at MIC (Proteus mirabilis; 0.06 μg/mL): 2; Cumulative percentage of isolates inhibited at MIC (Proteus mirabilis; 2 μg/mL): 100.0%; Number of test isolates at MIC (Proteus mirabilis; 2 μg/mL): 1; MIC50 (Proteus mirabilis; Proteus mirabilis, read-out: MIC50): 0.06 µg/mL (≈ 0.156 µM); MIC90 (Proteus mirabilis; Proteus mirabilis, read-out: MIC90): 0.12 µg/mL (≈ 0.313 µM); % I (Proteus mirabilis; listed as MEM): 2% ^; Cumulative percentage of isolates inhibited at MIC (Proteus mirabilis; ≤0.008 μg/mL): 2.0%; Number of test isolates at MIC (Proteus mirabilis; ≤0.008 μg/mL): 1; % I (Pseudomonas aeruginosa): 10%; % R (Pseudomonas aeruginosa): Eighteen; % S (Pseudomonas aeruginosa): 72%; Mode (Pseudomonas aeruginosa): 0.25 µg/mL; relative activity among drugs tested (Pseudomonas aeruginosa): most active drug evaluated; also recorded: most active agent; Cumulative percentage of isolates inhibited at MIC (Pseudomonas aeruginosa; 0.03 μg/mL): 2.0%; Number of test isolates at MIC (Pseudomonas aeruginosa; 0.03 μg/mL): 1; Cumulative percentage of isolates inhibited at MIC (Pseudomonas aeruginosa; 0.06 μg/mL): 6.0%; Number of test isolates at MIC (Pseudomonas aeruginosa; 0.06 μg/mL): 2; Cumulative percentage of isolates inhibited at MIC (Pseudomonas aeruginosa; 0.5 μg/mL): 56.0%; Number of test isolates at MIC (Pseudomonas aeruginosa; 0.5 μg/mL): 5; Cumulative percentage of isolates inhibited at MIC (Pseudomonas aeruginosa; 1 μg/mL): 66.0%; Number of test isolates at MIC (Pseudomonas aeruginosa; 1 μg/mL): 5; Cumulative percentage of isolates inhibited at MIC (Pseudomonas aeruginosa; 2 μg/mL): 72.0%; Number of test isolates at MIC (Pseudomonas aeruginosa; 2 μg/mL): 3; Cumulative percentage of isolates inhibited at MIC (Pseudomonas aeruginosa; 4 μg/mL): 84.0%; Number of test isolates at MIC (Pseudomonas aeruginosa; 4 μg/mL): 6; Cumulative percentage of isolates inhibited at MIC (Pseudomonas aeruginosa; 8 μg/mL): 92.0%; Number of test isolates at MIC (Pseudomonas aeruginosa; 8 μg/mL): 4; Cumulative percentage of isolates inhibited at MIC (Pseudomonas aeruginosa; >8 μg/mL): 100.0%; Number of test isolates at MIC (Pseudomonas aeruginosa; >8 μg/mL): 4; MIC50 (Pseudomonas aeruginosa; Pseudomonas aeruginosa, read-out: MIC50): 0.5 µg/mL (≈ 1.3 µM); MIC90 (Pseudomonas aeruginosa; Pseudomonas aeruginosa, read-out: MIC90): 8 µg/mL (≈ 20.9 µM); % I (Pseudomonas aeruginosa; listed as MEM): 10%; % R (Pseudomonas aeruginosa; listed as MEM): 18%
